Molecules are shown by their SMILES.

Drawing on the SangsterLogP compilation, this text covers logD for 13 compounds.

The data set in a line: method code SF-AS, from PMID: 6637504. The settings on record: pH 5.0.

As to `CC1CCc2nc3c(c(=O)n2C1)CCC3` (stereo not drawn), the pH-dependent lipophilicity (logD) is 1.2.

Compound `CC1CCCc2nc3c(c(=O)n21)CCC3` (stereo not drawn) gave a pH-dependent lipophilicity (logD) of 1.21.

For `O=c1c2c(nc3n1CCC3)CCCC2`, the pH-dependent lipophilicity (logD) came to 0.83.

Consider `O=c1c2c(nc3n1CCCC3)CCC2`, for which the logD turned out to be 0.72.

`O=c1c2c(nc3n1CCC3)CCCCCC2` showed a logD of 1.41.

On to `Cc1cccn2c(=O)c3c(nc12)CCC3`, for which the pH-dependent lipophilicity (logD) came to 1.72.

Compound `O=c1c2c(nc3n1CCCCCC3)CCCCCC2` registered a logD of 2.77.

On to `CCCc1c(C)nc2ccccn2c1=O`, for which the pH-dependent lipophilicity (logD) stood at 1.85.

Compound `CC1CCn2c(nc3c(c2=O)CCC3)C1` (stereo not drawn) gave a log distribution coefficient (logD) of 1.22.

With `CCc1c(C)nc2cc(C)cc(C)n2c1=O`, the log distribution coefficient (logD) amounted to 1.8.

Consider `O=c1c2c(nc3n1CCC3)CCCCC2`, for which the log distribution coefficient (logD) was 1.25.

`O=c1c2c(nc3ccccn13)CCC2` came in with a logD of 1.19.

`O=c1c2ccccc2nc2n1CCC2` yielded a logD of 1.07.
